Among the data in patent US20260224574A1, “ANTIFUNGAL COMPOSITIONS AND METHODS OF USE THEREOF” (ARIZONA BOARD OF REGENTS ON BEHALF OF THE UNIVERSITY OF …, priority 2023, published 2026) are IC50 values, retold here.

In the assay the test system is Cne H99 strain. As to the kind of experiment: cell-based anti-Cryptococcus neoformans growth inhibition dose-response assay (resazurin to resorufin fluorescence). The note with it: Cne H99, concentration series 0.02-50 μM, 24 hours incubation. On the procedure:
For primary screening, a cell-based high-throughput screening (HTS) assay was developed for testing the growth inhibition of Cne H99 strain of fungus. […] After standardizing the assay in 96 well plates, it was optimized in a 384-well plate.
The compound library included known bioactives, commercial libraries, and academic molecules. For HTS, the fungal cells were grown in SD broth overnight and diluted in Sabouraud dextrose (SD) broth to an optical density at 600 nm (OD600) of 0.5. […] From this cell suspension, 20 μL of the cells was added to each well of the 384-well assay plate (black, clear bottom) containing test compounds. Plates with test compounds were prepared by adding 20 μL of RPMI-MOPS medium to each well using a liquid dispenser (Thermo Multidrop Combi), followed by transferring 1 μL of the test compounds to all wells of the 22 columns in the assay plate using a robot. Dimethyl sulfoxide (DMSO) as vehicle control or 0.8 μM AmB as positive control was added manually to the remaining two columns using a multichannel pipet. […] Additionally, the absorbance was also read at 600 nm using the plate reader (EnVision, PerkinElmer).
Concentration series (0.02-50 μM) of test compounds and equalizing volume of DMSO were dispensed, using a liquid handler (D300e, Hewlett-Packard), to the 384-well plates. Following the addition of the Cne cells, the assay plates were incubated for 24 hours, followed by a fluorescence reading of resorufin as explained for single-concentration screening. The IC50 was calculated by graphpad prism.
On the technique in general: Alamar Blue is a resazurin reagent that responds to reducing activity.

[1] abbreviates: Cryptococcus neoformans, H99STRAIN.

On to `CN1CCC(C(=O)N2CCC3(CCCCc4ccccc4OCCN(Cc4ccccc4)C3)CC2)CC1` [compound 87], for which the midpoint of inhibition under setting [1], the IC50, lay at 10.1 µM.
Take `CN1c2cc3c(cc2N=C(c2ccc(C(=O)O)cc2)c2ccccc21)C(C)(C)CCC3(C)C` [compound 88]: half-maximal inhibition (IC50) required 10.1 µM.
Same read-out and setting: under `Cc1cc(Nc2nc(NC(C)c3ccc(F)cc3)c(C#N)cc2F)n[nH]1` (centres unmarked) [compound 89] stands 10.4 µM; under `C(=N/n1cnnc1)/c1ccc(N(c2ccccc2)c2ccccc2)cc1` [compound 90], 10.5 µM.
With `CCc1ccc(-c2nc3ccccn3c2CNCc2cccc(C)c2)cc1` [compound 91], under setting [1], the IC50 (as a rule, the concentration that gives 50% inhibition) was 10.7 µM.
